Counter-ions that a name gives are not always drawn.
Each compound was assayed against T1, human activated blood coagulation factor X (Homo sapiens, UniProt P00742) (assay: measuring the time for blood coagulation with the human activated blood coagulation factor X). Conditions: dose of the test compound for 2-time prolongation of the coagulation time; human plasma, 37° C.; read-out: Test for measuring coagulation time with the human activated blood coagulation factor X, CT2.
T1 construct: disulfide-linked light and heavy chains of one precursor) added to human plasma with CaCl2; clotting time CT2
T1 sequence (P00742 41-179): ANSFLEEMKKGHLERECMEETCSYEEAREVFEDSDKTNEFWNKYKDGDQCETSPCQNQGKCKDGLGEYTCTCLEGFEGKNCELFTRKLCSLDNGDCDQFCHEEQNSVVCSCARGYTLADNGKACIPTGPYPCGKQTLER
T1 sequence (P00742 235-488): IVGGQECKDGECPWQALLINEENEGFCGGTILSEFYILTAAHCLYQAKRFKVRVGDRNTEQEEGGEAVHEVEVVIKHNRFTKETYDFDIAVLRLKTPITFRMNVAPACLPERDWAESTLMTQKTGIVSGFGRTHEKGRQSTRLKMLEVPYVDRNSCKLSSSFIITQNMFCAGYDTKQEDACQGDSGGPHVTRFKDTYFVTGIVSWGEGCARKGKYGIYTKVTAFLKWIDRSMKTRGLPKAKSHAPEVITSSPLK
Type: biochemical
Experimental: 1) Method of measuring the time for blood coagulation with the human activated blood coagulation factor X:
The human activated blood coagulation factor X (Cosmo-Bio Co.) was dissolved in 0.05 M tris-HCl buffer (pH=7.40) to prepare its solution of 0.05 units/ml. Blood was collected in 3.8% sodium citrate to be 1/10 by volume, and centrifuged at 3,000 rpm for 10 minutes to separate human plasma therefrom. 90 μl of the thus-prepared human plasma, 10 μl of a test compound as diluted with physiological saline, and 50 μl of the solution of the activated blood coagulation factor X were kept warmed at 37° C. for 3 minutes, to which was added 100 μl of a solution of 20 mM CaCl2, and the time for blood coagulation in the system was measured.
To measure the coagulation time, used was Amelung's KC4A. The dose of the test compound for 2-time prolongation of the coagulation time (hereinafterreferred to as CT2) was calculated on the basis of the coagulation time for the control to which was added 10 μl of physiological saline with no test compound.

EC (2-fold clotting time) [µM]	Compound
0.092	CC(=N)N1CCCN(c2ccc(N(Cc3ccc4ccc(C(=N)N)cc4c3)C(C)=O)cc2)CC1 [Example 17]
0.111	CCOC(=O)CS(=O)(=O)N(Cc1ccc2ccc(C(=N)N)cc2c1)c1ccc(N2CCCN(C(C)=N)CC2)cc1 [Example 22, ethyl [N-[4-(4-acetimidoylhexahydro-1H-1,4-diazepin-1-yl)phenyl]-N-[(7-amidino-2-naphthyl)methyl]-sulfamoyl]acetate dihydrochloride]
0.11	CCOC(=O)CNS(=O)(=O)N(Cc1ccc2ccc(C(=N)N)cc2c1)c1ccc(N2CCCN(C(C)=N)CC2)cc1 [Example 23, Ethyl N-[N-[4-(4-acetimidoylhexahydro-1H-1,4-diazepin-1-yl)phenyl]-N-[(7-amidino-2-naphthyl)methyl]-sulfamoyl]glycinate]
0.152	CCOC(=O)CC(=O)N(Cc1ccc2ccc(C(=N)N)cc2c1)c1ccc(N2CCCN(C(C)=N)CC2)cc1 [Example 24, Ethyl N-[4-(4-acetimidoylhexahydro-1H-1,4-diazepin-1-yl)phenyl]-N-[(7-amidino-2-naphthyl)methyl]malonamate]
0.089	CC(=N)N1CCCN(c2ccc(N(Cc3ccc4ccc(C(=N)N)cc4c3)S(=O)(=O)CC(=O)O)cn2)CC1 [Example 32, [N-[6-(4-Acetimidoylhexahydro-1H-1,4-diazepin-1-yl)-3-pyridyl]-N-[(7-amidino-2-naphthyl)methyl]sulfamoyl]acetic acid]
0.098	CC(=N)N1CCCN(c2ccc(N(Cc3ccc4ccc(C(=N)N)cc4c3)S(=O)(=O)CC(=O)O)cc2)CC1 [Example 33, [N-[4-(4-acet-imidoylhexahydro-1H-1,4-diazepin-1-yl)phenyl]-N-[(7-amidino-2-naphthyl)methyl]sulfamoyl]acetic acid dihydro-chloride]
0.069	CC(=N)N1CCCN(c2ccc(N(Cc3ccc4ccc(C(=N)N)cc4c3)C(=O)CCC(=O)O)cc2)CC1 [Example 36, N-[4-(4-Acetimidoylhexahydro-1H-1,4-diazepin-1-yl)phenyl]-N-[(7-amidino-2-naphthyl)methyl] succinamic acid]
0.119	CCOC(=O)CC(=O)N(Cc1ccc2ccc(C(=N)N)cc2c1)c1ccc(N2CCCN(C(C)=N)CC2)nc1 [Example 72]
0.224	CCOC(=O)CCC(=O)N(Cc1ccc2ccc(C(=N)N)cc2c1)c1ccc(N2CCCN(C(C)=N)CC2)nc1 [Example 73]
0.095	CC(=N)N1CCCN(c2ccc(N(Cc3ccc4ccc(C(=N)N)cc4c3)C(=S)NCC(=O)O)cc2)CC1 [Example 75, N-[4-(4-Acetimidoylhexahydro-1H-1,4-diazepin-1-yl)phenyl]-N-[(7-amidino-2-naphthyl)methyl]thioamido-acetic acid]
0.134	CC(=N)N1CCCN(c2ccc(N(Cc3ccc4ccc(C(=N)N)cc4c3)C(=O)CCC(=O)O)cn2)CC1 [Example 84]

From US6333320A, “Hexahydro-1,4-diazepine derivatives or salts thereof” (Yamanouchi Pharmaceutical Co., priority 1997, dated 2001)
